We go through two compounds from ChEMBL document CHEMBL2040789, “Optimization of the Central Core of Indolinone-Acetic Acid-Based CRTH2 (DP2) Receptor Antagonists” (ACS Med Chem Lett, 2011).

pIC50, pKi: −log10 of the molar value.

The test system of data set [1] is Mus musculus. Put plainly: Antiinflammatory activity in ovalbumin-sensitised Balb/c mouse assessed as reduction in ovalbumin-induced eosinophil count in bronchoalveolar lavage fluid at 1 mg/kg, ip administered 1 hr before and 7 hrs after ovalbumin challenge measured after 8 hrs by haemocytometeric analysis. The format is functional. The following applies: Lung, route intraperitoneal.

The nature of data set [2]: Fraction unbound in rat plasma. It is filed as ADME, cell-free.
The target in data set [3] is Aldo-keto reductase family 1 member B1 (Homo sapiens, UniProt P15121). In words: Inhibition of aldose reductase.
The nature of data set [4]: AUC in C57BL/6 mouse at 5 mg/kg, po. It is filed as ADME, organism-based. More on the design: dose 5 mg/kg, route oral. The following applies: plasma.
Data set [5] concerns the target Voltage-gated inwardly rectifying potassium channel KCNH2 (Homo sapiens, UniProt Q12809). Put plainly: Inhibition of human Erg.
For a further data set, the target named is Cytochrome P450 2C9 (Homo sapiens, UniProt P11712). Put plainly: Inhibition of CYP2C9. The format is ADME.
The target of another data set is Cytochrome P450 3A4 (Homo sapiens, UniProt P08684). Put plainly: Inhibition of CYP3A4. It is filed as ADME.
Data set [6] can be described thus: Oral bioavailability in C57BL/6 mouse at 5 mg/kg. It is filed as ADME, organism-based. Conditions: in vivo; call rule not given here.
Data set [7] is described as follows: Oral bioavailability in Sprague-Dawley rat at 5 mg/kg. It is filed as ADME, organism-based. Conditions: in vivo.
Data set [8] is described as follows: Fraction unbound in human plasma. It is filed as ADME, cell-free.
Data set [9] deals with Mus musculus. Put plainly: Antiinflammatory activity in ovalbumin-sensitised Balb/c mouse assessed as reduction in ovalbumin-induced eosinophil count in bronchoalveolar lavage fluid at 30 mg/kg, po administered 1 hr before and 7 hrs after ovalbumin challenge measured after 8 hrs by haemocytometeric analysis. The format is functional. Conditions: Lung.
Data set [10] deals with Prostaglandin E2 receptor EP2 subtype (Homo sapiens) (UniProt P43116). In words: Inhibition of EP2 at 10 uM.
Data set [11] in a line: Apparent permeability of the compound in human Caco2 cells. Conditions: Caco-2. The format is ADME, cell-based.
Data set [12] can be described thus: Fraction unbound in mouse plasma. It is filed as ADME, cell-free.
The subject of the next data set is Hepatocyte. Put plainly: Cytotoxicity against primary rat hepatocytes up to 750 uM. It is filed as cell-based.
For the next data set, the system named is HepG2. Put plainly: Cytotoxicity against human HepG2 cells up to 750 uM. It is filed as cell-based.
Data set [13] in a line: Intrinsic clearance in rat liver microsomes. It is filed as ADME, Microsome. Conditions: read-out: CLH.
Another data set addresses T1, Cytochrome P450 1A2 (Homo sapiens, UniProt P05177).
T1 sequence (P05177 whole entry): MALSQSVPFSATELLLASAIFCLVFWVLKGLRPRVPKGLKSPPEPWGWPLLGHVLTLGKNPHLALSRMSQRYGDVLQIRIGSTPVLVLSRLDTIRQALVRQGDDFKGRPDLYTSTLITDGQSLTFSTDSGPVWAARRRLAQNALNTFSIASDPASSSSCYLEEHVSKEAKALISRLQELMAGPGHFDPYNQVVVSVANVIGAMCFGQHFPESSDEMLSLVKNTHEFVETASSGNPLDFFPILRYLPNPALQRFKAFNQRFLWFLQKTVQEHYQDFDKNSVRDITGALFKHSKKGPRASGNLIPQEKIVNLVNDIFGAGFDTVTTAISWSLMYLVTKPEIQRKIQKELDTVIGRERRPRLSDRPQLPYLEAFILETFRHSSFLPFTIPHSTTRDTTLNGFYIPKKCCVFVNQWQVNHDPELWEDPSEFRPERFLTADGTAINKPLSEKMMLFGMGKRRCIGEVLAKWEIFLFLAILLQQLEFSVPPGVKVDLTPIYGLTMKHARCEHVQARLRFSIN
Put plainly: Inhibition of CYP1A2. The format is ADME.

Data set [14] has as its target T2, Prostaglandin D2 receptor (Homo sapiens) (UniProt Q13258).
T2 sequence (whole entry): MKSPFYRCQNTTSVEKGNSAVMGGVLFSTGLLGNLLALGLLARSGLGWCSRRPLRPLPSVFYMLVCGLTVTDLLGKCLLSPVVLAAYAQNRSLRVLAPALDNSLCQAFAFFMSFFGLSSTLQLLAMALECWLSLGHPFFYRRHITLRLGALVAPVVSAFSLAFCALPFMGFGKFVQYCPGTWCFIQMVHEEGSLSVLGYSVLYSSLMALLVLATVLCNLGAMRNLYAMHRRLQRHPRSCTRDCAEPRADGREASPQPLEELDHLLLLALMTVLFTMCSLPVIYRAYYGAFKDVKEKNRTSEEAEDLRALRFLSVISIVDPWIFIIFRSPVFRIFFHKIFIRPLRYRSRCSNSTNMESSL
In words: Inhibition of DP1 expressed in human HEK cells at 20 uM. The format is cell-based. The following applies: HEK293.

In another data set the target is T3, Cytochrome P450 2C8 (Homo sapiens, UniProt P10632).
T3 sequence (P10632 whole entry): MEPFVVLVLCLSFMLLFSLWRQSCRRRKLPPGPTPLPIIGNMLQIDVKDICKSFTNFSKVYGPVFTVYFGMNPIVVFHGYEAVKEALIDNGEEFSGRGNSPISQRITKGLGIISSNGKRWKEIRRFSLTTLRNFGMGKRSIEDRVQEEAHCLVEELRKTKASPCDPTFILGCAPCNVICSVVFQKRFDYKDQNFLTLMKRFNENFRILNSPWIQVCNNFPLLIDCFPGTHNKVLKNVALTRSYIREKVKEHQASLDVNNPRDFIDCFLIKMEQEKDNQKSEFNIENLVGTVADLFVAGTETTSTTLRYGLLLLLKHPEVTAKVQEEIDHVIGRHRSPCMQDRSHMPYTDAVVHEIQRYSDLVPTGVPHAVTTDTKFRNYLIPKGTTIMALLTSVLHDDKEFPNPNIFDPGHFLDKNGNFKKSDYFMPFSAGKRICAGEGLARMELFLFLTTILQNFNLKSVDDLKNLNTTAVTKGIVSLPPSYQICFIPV
In words: Inhibition of CYP2C8. The format is ADME.

A short description of data set [15]: Clearance in C57BL/6 mouse at 1 mg/kg, iv and 5 mg/kg, po. It is filed as ADME, organism-based. The following applies: in vivo.
In data set [16] the target is T4, Prostaglandin D2 receptor 2 (Homo sapiens, UniProt Q9Y5Y4).
T4 sequence (Q9Y5Y4 whole entry): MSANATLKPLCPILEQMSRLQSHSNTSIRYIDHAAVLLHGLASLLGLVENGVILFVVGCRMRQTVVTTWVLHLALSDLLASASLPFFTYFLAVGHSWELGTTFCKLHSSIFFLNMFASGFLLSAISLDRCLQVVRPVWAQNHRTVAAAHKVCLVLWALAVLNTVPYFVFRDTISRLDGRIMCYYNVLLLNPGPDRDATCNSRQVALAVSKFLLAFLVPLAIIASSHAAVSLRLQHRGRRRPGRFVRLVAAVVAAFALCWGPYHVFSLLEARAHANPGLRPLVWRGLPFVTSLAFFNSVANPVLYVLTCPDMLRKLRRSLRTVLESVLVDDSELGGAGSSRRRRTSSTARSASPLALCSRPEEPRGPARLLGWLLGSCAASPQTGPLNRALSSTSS
In words: Displacement of [3H]PGD2 from human CRTH2 receptor expressed in CHO cells after 90 mins by scintillation proximity assay. The format is cell-based.

Data set [17] can be described thus: Intrinsic clearance in human liver microsomes. It is filed as ADME, Microsome. Conditions: read-out: CLH.
The target of data set [18] is T5, Prostaglandin E2 receptor EP1 subtype (Homo sapiens) (UniProt P34995).
T5 sequence (whole entry): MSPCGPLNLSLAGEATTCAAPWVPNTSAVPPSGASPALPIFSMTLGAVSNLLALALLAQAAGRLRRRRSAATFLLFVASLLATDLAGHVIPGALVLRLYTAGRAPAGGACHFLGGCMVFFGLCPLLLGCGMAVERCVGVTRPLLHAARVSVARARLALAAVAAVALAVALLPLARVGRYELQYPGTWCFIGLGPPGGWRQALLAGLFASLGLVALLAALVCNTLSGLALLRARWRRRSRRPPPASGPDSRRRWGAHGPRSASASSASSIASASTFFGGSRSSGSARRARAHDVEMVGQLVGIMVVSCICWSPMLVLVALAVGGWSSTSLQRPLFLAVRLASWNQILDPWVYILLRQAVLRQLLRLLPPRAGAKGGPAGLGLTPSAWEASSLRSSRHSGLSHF
In words: Inhibition of EP1 at 10 uM.

The target in a further data set is Cytochrome P450 2D6 (Homo sapiens, UniProt P10635). In words: Inhibition of CYP2D6. It is filed as ADME.
Data set [19] concerns the target T2, Prostaglandin D2 receptor (Homo sapiens). Put plainly: Antagonist activity at DP1 receptor expressed in HEK cells assessed as inhibition of PGD2-induced cAMP production at 20 uM. It is filed as functional, cell-based. Conditions: HEK293.
Another data set concerns the target Cytochrome P450 2C19 (Homo sapiens, UniProt P33261). In words: Inhibition of CYP2C19. It is filed as ADME.

Chain of Cytochrome P450 3A4 (P08684 whole entry): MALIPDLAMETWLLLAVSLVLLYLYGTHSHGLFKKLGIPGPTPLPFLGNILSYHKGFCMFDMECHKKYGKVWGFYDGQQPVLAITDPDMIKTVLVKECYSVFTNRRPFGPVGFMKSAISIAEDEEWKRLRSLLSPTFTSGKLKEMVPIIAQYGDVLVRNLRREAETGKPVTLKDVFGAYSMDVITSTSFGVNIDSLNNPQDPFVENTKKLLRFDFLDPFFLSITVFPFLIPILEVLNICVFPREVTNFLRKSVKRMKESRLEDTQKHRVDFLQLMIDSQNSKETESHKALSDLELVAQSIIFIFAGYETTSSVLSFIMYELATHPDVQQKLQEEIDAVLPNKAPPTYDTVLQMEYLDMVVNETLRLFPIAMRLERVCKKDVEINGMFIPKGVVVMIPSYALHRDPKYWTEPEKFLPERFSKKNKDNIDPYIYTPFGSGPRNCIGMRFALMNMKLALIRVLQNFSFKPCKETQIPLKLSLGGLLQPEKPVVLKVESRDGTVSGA
Chain of Cytochrome P450 2C9 (P11712 whole entry): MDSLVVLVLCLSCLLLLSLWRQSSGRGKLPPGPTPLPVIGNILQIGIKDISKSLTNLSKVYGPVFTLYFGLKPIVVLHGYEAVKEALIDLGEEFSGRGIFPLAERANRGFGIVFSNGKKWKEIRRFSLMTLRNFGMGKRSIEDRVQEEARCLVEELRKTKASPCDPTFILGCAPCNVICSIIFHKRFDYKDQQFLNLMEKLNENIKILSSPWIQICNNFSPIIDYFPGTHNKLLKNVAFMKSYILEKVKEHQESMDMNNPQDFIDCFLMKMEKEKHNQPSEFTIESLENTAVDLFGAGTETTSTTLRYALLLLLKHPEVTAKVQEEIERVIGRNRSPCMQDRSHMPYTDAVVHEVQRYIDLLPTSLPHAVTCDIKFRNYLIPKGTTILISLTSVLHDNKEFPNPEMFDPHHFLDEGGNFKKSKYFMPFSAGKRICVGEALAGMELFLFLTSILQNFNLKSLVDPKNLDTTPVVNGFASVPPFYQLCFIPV
Chain of Voltage-gated inwardly rectifying potassium channel KCNH2 (Q12809 whole entry): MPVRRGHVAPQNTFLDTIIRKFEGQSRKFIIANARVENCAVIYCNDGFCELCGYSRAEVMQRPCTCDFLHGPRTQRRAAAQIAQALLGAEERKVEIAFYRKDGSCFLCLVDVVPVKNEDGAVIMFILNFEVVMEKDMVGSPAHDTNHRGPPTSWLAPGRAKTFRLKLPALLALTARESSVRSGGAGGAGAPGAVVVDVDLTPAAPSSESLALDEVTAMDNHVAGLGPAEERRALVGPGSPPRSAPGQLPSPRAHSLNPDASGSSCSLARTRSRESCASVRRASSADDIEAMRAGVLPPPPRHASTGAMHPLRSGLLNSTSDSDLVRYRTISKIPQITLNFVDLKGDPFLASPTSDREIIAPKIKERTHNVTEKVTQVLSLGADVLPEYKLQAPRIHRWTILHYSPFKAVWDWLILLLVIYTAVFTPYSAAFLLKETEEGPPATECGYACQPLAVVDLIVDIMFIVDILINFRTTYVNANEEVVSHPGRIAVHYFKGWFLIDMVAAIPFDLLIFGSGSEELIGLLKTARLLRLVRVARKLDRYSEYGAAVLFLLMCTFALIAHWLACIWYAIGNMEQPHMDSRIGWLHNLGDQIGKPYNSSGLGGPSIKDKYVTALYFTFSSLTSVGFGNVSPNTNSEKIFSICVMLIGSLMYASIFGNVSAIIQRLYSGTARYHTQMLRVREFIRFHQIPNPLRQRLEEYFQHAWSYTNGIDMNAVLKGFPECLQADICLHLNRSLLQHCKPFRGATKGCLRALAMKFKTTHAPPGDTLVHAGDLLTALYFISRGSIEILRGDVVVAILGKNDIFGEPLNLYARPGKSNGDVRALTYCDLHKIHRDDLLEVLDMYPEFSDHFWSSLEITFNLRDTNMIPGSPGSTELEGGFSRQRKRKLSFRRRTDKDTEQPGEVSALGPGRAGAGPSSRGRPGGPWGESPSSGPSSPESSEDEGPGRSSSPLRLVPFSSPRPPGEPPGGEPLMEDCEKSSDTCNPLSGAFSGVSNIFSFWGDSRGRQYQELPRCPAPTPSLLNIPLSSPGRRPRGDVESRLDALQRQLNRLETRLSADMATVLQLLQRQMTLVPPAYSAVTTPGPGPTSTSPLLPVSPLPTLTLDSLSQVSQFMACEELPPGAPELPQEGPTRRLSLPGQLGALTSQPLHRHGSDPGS
Chain of Cytochrome P450 2D6 (P10635 whole entry): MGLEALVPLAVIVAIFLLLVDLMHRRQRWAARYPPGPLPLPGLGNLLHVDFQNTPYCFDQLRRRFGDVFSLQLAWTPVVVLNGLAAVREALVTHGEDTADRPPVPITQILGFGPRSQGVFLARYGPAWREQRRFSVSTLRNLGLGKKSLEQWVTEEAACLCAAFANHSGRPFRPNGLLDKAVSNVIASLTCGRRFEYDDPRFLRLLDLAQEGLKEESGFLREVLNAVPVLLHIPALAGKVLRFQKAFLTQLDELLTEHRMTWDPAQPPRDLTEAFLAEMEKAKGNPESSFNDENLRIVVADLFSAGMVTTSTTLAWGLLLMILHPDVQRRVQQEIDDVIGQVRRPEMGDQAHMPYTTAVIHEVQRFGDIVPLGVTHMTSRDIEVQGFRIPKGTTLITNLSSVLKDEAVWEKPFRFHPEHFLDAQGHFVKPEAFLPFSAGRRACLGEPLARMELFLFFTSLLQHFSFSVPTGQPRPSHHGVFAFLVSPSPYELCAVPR
Chain of Prostaglandin E2 receptor EP2 subtype (Homo sapiens) (P43116 whole entry): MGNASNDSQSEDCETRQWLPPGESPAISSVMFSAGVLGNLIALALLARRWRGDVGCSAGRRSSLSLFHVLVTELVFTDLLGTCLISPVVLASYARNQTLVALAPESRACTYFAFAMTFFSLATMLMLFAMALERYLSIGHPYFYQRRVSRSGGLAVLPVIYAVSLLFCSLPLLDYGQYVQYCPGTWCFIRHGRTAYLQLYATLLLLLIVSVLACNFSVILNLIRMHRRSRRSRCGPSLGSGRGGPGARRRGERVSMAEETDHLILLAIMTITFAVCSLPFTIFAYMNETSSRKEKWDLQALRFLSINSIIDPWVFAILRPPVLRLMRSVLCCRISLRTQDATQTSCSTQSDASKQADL
Chain of Cytochrome P450 2C19 (P33261 whole entry): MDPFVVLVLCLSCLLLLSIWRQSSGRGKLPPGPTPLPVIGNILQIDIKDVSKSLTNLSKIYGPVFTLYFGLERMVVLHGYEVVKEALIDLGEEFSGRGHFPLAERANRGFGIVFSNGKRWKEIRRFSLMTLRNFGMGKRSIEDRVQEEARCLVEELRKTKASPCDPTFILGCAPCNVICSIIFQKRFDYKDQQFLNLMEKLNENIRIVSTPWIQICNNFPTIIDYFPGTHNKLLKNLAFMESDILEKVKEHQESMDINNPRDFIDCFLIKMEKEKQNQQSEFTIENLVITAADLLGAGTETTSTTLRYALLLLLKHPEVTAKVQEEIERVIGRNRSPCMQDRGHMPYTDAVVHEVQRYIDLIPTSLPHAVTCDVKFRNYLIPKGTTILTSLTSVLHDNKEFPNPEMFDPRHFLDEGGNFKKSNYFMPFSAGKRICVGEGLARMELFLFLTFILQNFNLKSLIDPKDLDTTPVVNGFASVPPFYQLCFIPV

Consider `C[C@@H]1C[C@H]2[C@@H]3CCC4=CC(=O)C=C[C@]4(C)[C@@]3(F)[C@@H](O)C[C@]2(C)[C@@]1(O)C(=O)CO` [DEXAMETHASONE], for which, in the data set on Mus musculus [1], the inhibition in vivo at 1 mg/kg was determined as 83%.

Consider `CN1C(=O)N(Cc2cc(Cl)ccc2F)C(=O)[C@]12C(=O)N(CC(=O)O)c1ccc(Cl)cc12`, for which the figures for the fraction unbound in [2], in [8] and in [12] were 0.019, 0.02 and 0.05, respectively. Besides, the pIC50 in data set [3] was 6.82; against Cytochrome P450 2C9 it was under 5.00; at Cytochrome P450 3A4, under 5.00; against Cytochrome P450 1A2, under 5.00; at Cytochrome P450 2C8 it was under 5.00; on Cytochrome P450 2D6 it was under 5.00. The compound also showed a pIC50 against Cytochrome P450 2C19 of under 5.00. The AUC in data set [4] is 2400 ng·h/mL. In data set [5], the “inhibition (INH)” value is reported as “Not Active”. Moreover, the bioavailability was 39% in data set [6] and 37% in data set [7]. Also, the inhibition in vivo at 30 mg/kg in the data set with Mus musculus [9] turned out to be 67%. Also, the inhibition is 34% in data set [10], under 30% in data set [14], 32% in data set [18] and under 30% in data set [19]. The Papp in data set [11] was 0.6 ×10⁻⁶ cm/s. Besides, the Activity result in the data set with Hepatocyte and with HepG2 was “Non-toxic” in each case. Also, the microsomal CLint in data set [13] and in data set [17] was under 10 µL/min/mg each time. In addition, the clearance in data set [15] is 13.3 mL/min/kg. Further, the pKi in data set [16] was 7.46.
